# Legend:
# gastric ulcer = experiment: Prevention of gastric ulcer due to pyloric ligation (Example 9); assay type: in vivo, male Wistar rats; settings: 200 µg/kg i.p. once after pyloric ligation, 15 h
# Procedure: Twenty male Wistar rats of average body weight of 250 g were divided equally into two groups, and used in the following test:
# After 36 hour fasting, all the rats were subjected to pyloric ligation, and the rats of the first group were administered with 2 ml/kg of Panacete®810 (triglyceride ester of C8 and C10 -fatty acid, made by Nippon Oil & Fats Co., Ltd.) containing 0.2% by weight of ethanol intraperitoneally once just after ligation. The rats of the second group were administered with 24R,25-(OH)2 -D3 dissolved in Panacete®810 containing 0.2% by weight of ethanol intraperitoneally at a dose rate of 200 micrograms/kg body weight once just after ligation. After 15 hours of administration, all the rats were subjected to gastrectomy, and the presence or absence of the gastroparietal ulcer was examined on all the resected stomach.
# As a result, the occurrence of gastric ulcer was found on 9 rats of 10 rats of the first group, and on 2 rats of 10 rats of the second group.
# In a similar test, 24S,25-(OH)2 -D3 was used instead of 24R,25-(OH)2 -D3 to examine its effect in preventing the occurrence of gastric ulcer due to pyloric ligation. As a result, the occurrence of gastric ulcer was recognized on 3 rats of 10 rats of the group similarly treated to those of the second group.
# [1] = 30-day repeated oral administration toxicity (Example 26); assay type: in vivo, ICR mouse; settings: 10 to 1000 µg/kg/day p.o., 30 days
# Procedure: 24R,25-(OH)2 -D3 was dissolved in Panacete® 810 containing 1% by weight of ethanol, and the solution was forcibly p.o. administered once a day for 30 continuous days to each male or female ICR mouse of the groups shown in Table 20 at each one of the daily dose rates also shown in Table 20.
# As the control, Panacete 810 was solely and forcibly p.o. administered to the mice of the same strain once a day for 30 continuous days.
# magnesium level in serum = experiment: Serum magnesium in hypermagnesemic chronic renal failure patients (Example 17); assay type: in vivo, human; settings: for Magnesium level in serum after administration: 10 days; for Magnesium level in serum before administration: baseline
# Procedure: To the three patients of chronic renal failure showing the hypermagnesemic symptoms of nearly the same extent to each other, 24R,25-(OH)2 -D3 was orally administered in a form of soft capsule composition prepared in Example 6 at a daily dose of 2 to 5 micrograms for continuous 10 days. Magnesium level in their serum was determined before and after the administration following the ordinary method.
# [2] = test system: ulcer found on the duodenum; experiment: Healing of acetic acid induced duodenal ulcer (Example 10); assay type: in vivo, male rats; settings: 20 µg/kg/day oral, 10 days
# Procedure: Fourty five male rats of body weight of 240 to 260 g were equally divided into three groups, each consisting of 15 animals, and they were subjected to an operation following the method of Okabe et al. (refer to Amer. J. Dig. Dia., 16, 277, 1971), in which under anesthesia by ether, a circular frame made of a metal was placed on the serosa 5 to 7 mm from the pylorus and 0.06 ml of gracial acetic acid was poured onto the round part within the frame and after 30 sec, the acetic liquid was removed with the frame.
# The thus operated rats of the first group were administered orally with a suspension of […] of 24R,25-(OH)2 -D3 in Panacete®810 containing 0.2% by weight of ethanol once a day for continuous 10 days from the third day of the operation at a daily dose rate of 20 micrograms of 24R,25-(OH)2 -D3 /kg. To the thus operated rats of the second group (control), only Panacete®810 was orally administered at a daily dose rate of 2 ml/kg for continuous 10 days.
# The thus operated rats of the third group were used in the comparative test. Namely, they were treated in the same manner as those of the first group except for administration of gefarnate (3,7-dimethyl-2,6-octadienyl-5,9,13-trimethyl-4,8,12-tetradecatrienoate) at a daily dose rate of 20 microgram/kg body weight in stead of 24R,25-(OH)2 -D3 in the first group.
# After finishing the final administration, all the rats were sacrificed by ether and their duodenum was taken out for autopsy. The length and the width of the ulcer found on the duodenum were measured, and their product with a unit of mm^2 was taken and named as the ulcer coefficient. The rate of healing of the ulcer was calculated by the following formula: [formula] wherein C is the ulcer coefficient of control and U is the ulcer coefficient of the group to which the present compound was administered.
# [3] = test system: LICR-LON-HMy 2 cells derived from human myeloma; experiment: Inhibition of proliferation of LICR-LON-HMy 2 cells (Example 25); assay type: cell-based; settings: 3 days
# Procedure: In a similar manner to Example 24, in vitro proliferated strain of LICR-LON-HMy 2 cells derived from human myeloma were cultured in each one of the same culture mediums as those used in Example 24. After culturing for 3 days, the cultured medium was stained with tripan blue and observed under a microscope to count the number of living cells, the results being shown in Table 19.
# In Table 19, the inhibition rate is based on the number of cells in the culture medium added specifically with dimethylsulfoxide as in Example 24.
compound,measurement,setting,value
"C=C1CC[C@H](O)C/C1=C/C=C1\CCC[C@]2(C)[C@@H]([C@H](C)CC[C@@H](O)C(C)(C)O)CC[C@@H]12 [24R,25-(OH)2 -D3]",occurrence of gastric ulcer,gastric ulcer,2 rats of 10 rats
same,histopathological examination of organs,[1],no abnormal findings were obtained
same,body weight,[1]; all groups,no significant difference of body weight was observed
same,weights of internal organs,[1]; all groups,not significantly different
same,Magnesium level in serum after administration,"magnesium level in serum; patient A, 5 µg/day",2.0 mg/dL
same,Magnesium level in serum before administration,magnesium level in serum; patient A,4.2 mg/dL
same,Magnesium level in serum after administration,"magnesium level in serum; patient B, 2 µg/day",2.1 mg/dL
same,Magnesium level in serum before administration,magnesium level in serum; patient B,4.0 mg/dL
same,Magnesium level in serum after administration,"magnesium level in serum; patient C, 5 µg/day",1.9 mg/dL
same,Magnesium level in serum before administration,magnesium level in serum; patient C,4.3 mg/dL
same,ulcer coefficient,[2],1.5 mm^2
same,rate of ulcer healing,[2]; vs control,80%
same,Number of myeloma cells after culture,[3]; 1 microgram/ml,8.0 ×10^5 cells/ml
same,Number of myeloma cells after culture,[3]; 10 micrograms/ml,0.4 ×10^5 cells/ml
same,inhibition at 1 µg/mL,"[3]; Homo sapiens, 72 h, 1 microgram/ml, vs dimethylsulfoxide, read-out: Inhibition Rate of the myeloma cells",12%
same,inhibition at 10 µg/mL,"[3]; Homo sapiens, 72 h, 10 micrograms/ml, vs dimethylsulfoxide, read-out: Inhibition Rate of the myeloma cells",96%

# — patent US4442093A, “Method for administering 24,25-dihydroxycholecalciferol to persons suffering from hypercalcemia” (Kureha Kagaku Kogyo Kabushiki Kaisha, priority 1981, dated 1984)
